Experiments:
[1] = Sheep bolus test, manganese blood uptake; type: in vivo; settings: 30 hour
Description: Tests like in Example 19 and 21 were run with MnSO4 in comparison with Mn-EDA of Example 10. At all points Manganese blood uptake of the sheep was at lower levels than other tested ligands. This may be a characteristic of Mn itself.

[2] = sheep, bolus; versus FeSO4; most notably at 30 hours; FIG. 3
Description: In the following examples sheep were given a bolus injection like in Example 19 and then blood uptake was measured at various intervals.
The Fe-EDA (Example 9) and the Fe-EDA (Example 16) were tested for iron uptake in the blood in comparison with the bolus injection of FeSO4.

Cobb male broilers = test: Poultry trial with Cobb male broilers; type: in vivo; settings: Cobb male broilers from 1 day old; 80 ppm supplemental Zn; Zn-EDA group = 40 ppm Zn from ZnSO4 + 40 ppm Zn from Zn-EDA
Description: Animals were Cobb male broilers. The experiment was started with 1 day old animals. ZnSO4 was used as a comparative example using 80 ppm zinc from ZnSO4. Zn-EDA replaced 40 ppm of the zinc so there was 40 ppm Zn from ZnSO4 and 40 ppm Zn from Zn-EDA and compared to 80 ppm Zn from ZnSO4. Actual broiler integrator diets were used. They contain 500 ftu of phytase and an NSP enzyme (nonstarch polysaccride degrading enzyme). The plane of nutrition is targeted to be at AgriStat's 75th percentile. […] There were 12 replicates per treatment and 21 birds per replicate.

Compound	Manganese blood uptake [1]	iron uptake in the blood [2]	further results
1,2 Diaminoethane dihydrochloride—manganese(II) chloride [Example 10]	33	–	–
Cl.Cl.NCCN.[Cl][Fe][Cl] [Example 9, 1,2 Diaminoethane dihydrochloride—iron(II) chloride]	–	better at every interval than inorganic iron sulfate	–
NCCN.[Cl][Fe][Cl] [Example 16, 1,2 Diaminoethane—iron(II) chloride]	–	better at every interval than inorganic iron sulfate	–
O=S(=O)([O-])[O-].[Mn+2] [MnSO4]	24	–	–
O=S(=O)([O-])[O-].[Zn+2] [ZnSulfate, ZnSO4]	–	–	Body Wt. (Cobb male broilers): 2.212 kg; Feed Conversion (Cobb male broilers): 1.531; Mortality (Cobb male broilers): 4.71%

From US8968807B1, “Use of ethylene diamine metal complexes to deliver highly absorbable metals for animal nutrition” (Zinpro Corporation, priority 2013, dated 2015)
